The values that follow come from US12677830B2, “3-alkoxybenzamide derivative, and pest control agent” (Kumiai Chemical Industry Co., Ltd., priority 2020, dated 2026).

In general, mortality refers to the percentage killed.

SMILES strings stand for the structures.

Common to all, as to format: in vivo
The subject of one experiment is Tetranychus urticae. Description: Test for control effect against Tetranychus urticae (soybean seedling dip). Particulars: 312 h, 500 ppm active ingredient (wettable powder in water), soybean seedling inoculated with 35 female adults immersed, 25° C., 13 days after the treatment, read-out: controlling value. The method, then:
[Test Example 5] Test for Control Effect Against Tetranychus urticae
The wettable powder prepared in accordance with Formulation Example 2 was diluted with water to a concentration of 500 ppm as an active ingredient. A soybean seedling previously inoculated with 35 female adults of Tetranychus urticae was immersed in the chemical solution, and air-dried. The treated soybean seedling was placed in a room at constant temperature of 25° C. The number of surviving female adults was examined at 13 days after the treatment, and the controlling value was determined by the calculation formula of Equation 2. The number of replicate is one in each test.
The compound numbers of the compounds showing a controlling value of 90 or more in this test are listed below.

A further experiment concerns Nilaparvata lugens. Description: Test for insecticidal activity against Nilaparvata lugens (rice sprout dip). To be noted: 144 h, 500 ppm active ingredient (wettable powder in water), rice sprouts immersed, ten second instar larvae, 25° C., 6 days after the treatment, read-out: mortality rate. As for the experimental part: [Test Example 3] Test for Insecticidal Activity Against Nilaparvata lugens
The wettable powder prepared in accordance with Formulation Example 2 was diluted with water to a concentration of 500 ppm as an active ingredient. The rice sprouts were immersed in the chemical solution, and placed in a plastic cup. Ten second instar larvae of Nilaparvata lugens were released into the plastic cup, and the cup was capped. Thereafter, the cup was placed in a room at constant temperature of 25° C. The number of dead insects was examined at 6 days after the treatment, and the mortality rate was calculated by the calculation formula of Equation 1. The number of replicate is one in each test.
(§1) The compound numbers of the compounds showing a mortality rate of 90% or more in this test are listed below.

Another experiment concerns Plutella xylostella. The experiment is described as follows: Test for insecticidal activity against Plutella xylostella (cabbage leaf dip). Particulars: foliar, 144 h, 500 ppm active ingredient (wettable powder in water), cabbage leaves immersed, ten second instar larvae, 25° C., 6 days after the treatment, read-out: mortality rate. As for the experimental part:
[Test Example 1] Test for Insecticidal Activity Against Plutella xylostella
(§2) The wettable powder prepared in accordance with Formulation Example 2 was diluted with water to a concentration of 500 ppm as an active ingredient. Cabbage leaves were immersed in the chemical solution, air-dried, and then placed in a plastic cup. Ten second instar larvae of Plutella xylostella were released into the cup, and the cup was capped. Thereafter, the cup was placed in a room at constant temperature of 25° C. The number of dead insects was examined at 6 days after the treatment, and the mortality rate was calculated by the calculation formula of Equation 1. The number of replicate is one in each test.
as §1

For a further experiment, the system named is Helicoverpa armigera. The experiment is described as follows: Test for insecticidal activity against Helicoverpa armigera (cabbage leaf dip). Particulars: foliar, 144 h, 500 ppm active ingredient (wettable powder in water), cabbage leaves immersed, five hatching larvae, 25° C., 6 days after the treatment, read-out: mortality rate. As for the experimental part:
[Test Example 2] Test for Insecticidal Activity Against Helicoverpa armigera
as §2, with “Five hatching” for “Ten second instar”, “Helicoverpa armigera” for “Plutella xylostella”, “two” for “one”
as §1

A further experiment concerns Aphis gossypii. The experiment is described as follows: Test for control effect against Aphis gossypii (cucumber seedling dip). Particulars: 72 h, 500 ppm active ingredient (wettable powder in water), cucumber seedling inoculated with nymphs immersed, 25° C., 3 days after the treatment, read-out: mortality rate. As for the experimental part:
[Test Example 4] Test for Control Effect Against Aphis gossypii
The wettable powder prepared in accordance with Formulation Example 2 was diluted with water to a concentration of 500 ppm as an active ingredient. A cucumber seedling previously inoculated with Aphis gossypii nymphs was immersed in the chemical solution, and air-dried. The treated cucumber seedling was placed in a room at constant temperature of 25° C. The number of surviving insects was counted at 3 days after the treatment, and the mortality rate was calculated by the calculation formula of Equation 1. The number of replicate is one in each test.
as §1

For the compound `O=C(NCC(F)(F)F)c1cc(OCCCCCBr)c(F)cc1Cl` [Compound A-0030, 5-[(5-bromopentyl)oxy]-2-chloro-4-fluoro-N-(2,2,2-trifluoroethyl)benzamide], the pest or weed control at 500 ppm in the experiment with Tetranychus urticae is at least 90%.

On to `CC(CCl)COc1cc(C(=O)NCC(F)(F)F)c(Cl)cc1F` (stereo not shown) [Compound A-0037, 2-chloro-5-(3-chloro-2-methylpropoxy)-4-fluoro-N-(2,2,2-trifluoroethyl)benzamide], for which the pest or weed control at 500 ppm with Tetranychus urticae is at least 90%.

With `N#CSCCCCCOc1cc(C(=O)NCC(F)(F)F)c(Cl)cc1F` [Compound A-0752, 2-chloro-4-fluoro-5-[(5-thiocyanatopentyl)oxy]-N-(2,2,2-trifluoroethyl)benzamide], the mortality at 500 ppm with Nilaparvata lugens is at least 90%.

For the compound `CC(COc1cc(C(=O)NCC(F)(F)F)c(Cl)cc1F)CSC#N` (stereo not shown) [Compound A-0758, 2-chloro-4-fluoro-5-(2-methyl-3-thiocyanatopropoxy)-N-(2,2,2-trifluoroethyl)benzamide], the pest or weed control at 500 ppm in the experiment on Tetranychus urticae is at least 90%.

Take `O=C(NCC(F)(F)F)c1cc(OCCCCCSC(F)(F)F)c(F)cc1Cl` [Compound A-4689, 2-chloro-4-fluoro-N-(2,2,2-trifluoroethyl)-5-({5-[(trifluoromethyl)thio]pentyl}oxy)benzamide]: the pest or weed control at 500 ppm with Tetranychus urticae is at least 90%.

In the case of `Cc1cc(F)c(OCCCCCSC(F)(F)F)cc1C(=O)NCC(F)(F)F` [Compound A-4712, 4-fluoro-2-methyl-N-(2,2,2-trifluoroethyl)-5-({5-[(trifluoromethyl)thio]pentyl}oxy)benzamide], the pest or weed control at 500 ppm in the experiment on Tetranychus urticae is at least 90%.

Consider `Fc1cc(Cl)c(C(=S)NCC(F)(F)F)cc1OCCCCCSC(F)(F)F` [Compound A-5172, 2-chloro-4-fluoro-N-(2,2,2-trifluoroethyl)-5-({5-[(trifluoromethyl)thio]pentyl}oxy)thiobenzamide], for which the pest or weed control at 500 ppm in the experiment on Tetranychus urticae was at least 90%.

As to `N#CCN(CC(F)(F)F)C(=O)c1cc(OCCCCCSC(F)(F)F)c(F)cc1Cl` [Compound A-6692, 2-chloro-N-(cyanomethyl)-4-fluoro-N-(2,2,2-trifluoroethyl)-5-({5-[(trifluoromethyl)thio]pentyl}oxy)benzamide], the pest or weed control at 500 ppm in the experiment on Tetranychus urticae was at least 90%. The mortality at 500 ppm in the experiment with Plutella xylostella was at least 90%.

Regarding `CC(=O)N(CC(F)(F)F)C(=O)c1cc(OCCCCCSC(F)(F)F)c(F)cc1Cl` [Compound A-6814, N-acetyl-2-chloro-4-fluoro-N-(2,2,2-trifluoroethyl)-5-({5-[(trifluoromethyl)thio]pentyl}oxy)benzamide], the pest or weed control at 500 ppm in the experiment with Tetranychus urticae was at least 90%. Moreover, the mortality at 500 ppm in the experiment on Nilaparvata lugens was at least 90%.

As to `CC(COc1cc(C(=O)NCC(F)(F)F)c(Cl)cc1F)CSC(F)(F)F` (stereo not shown) [Compound B-0009, 2-chloro-4-fluoro-5-{2-methyl-3-[(trifluoromethyl)thio]propoxy}-N-(2,2,2-trifluoroethyl)benzamide], the mortality at 500 ppm in the experiment with Helicoverpa armigera, in the experiment on Plutella xylostella, in the experiment with Nilaparvata lugens and in the experiment with Aphis gossypii was at least 90% each time. In the experiment on Tetranychus urticae, the pest or weed control at 500 ppm was at least 90%.

For `CC(COc1cc(C(=O)NCC(F)(F)F)c(Cl)cc1F)NS(=O)(=O)C(F)(F)F` (stereo not shown) [Compound C-0004, 2-chloro-4-fluoro-N-(2,2,2-trifluoroethyl)-5-{2-[(trifluoromethyl)sulfonamido]propoxy}benzamide], the mortality at 500 ppm in the experiment on Helicoverpa armigera, in the experiment with Plutella xylostella, in the experiment on Nilaparvata lugens and in the experiment with Aphis gossypii was at least 90% in each case. Moreover, the pest or weed control at 500 ppm with Tetranychus urticae was at least 90%.

As to `C[C@H](COc1cc(C(=O)NCC(F)(F)F)c(Cl)cc1F)NS(=O)(=O)C(F)(F)F` [Compound C-0005, (R)-2-chloro-4-fluoro-N-(2,2,2-trifluoroethyl)-5-{2-[(trifluoromethyl)sulfonamido]propoxy}benzamide], the pest or weed control at 500 ppm in the experiment on Tetranychus urticae was at least 90%.

On to `C[C@@H](COc1cc(C(=O)NCC(F)(F)F)c(Cl)cc1F)NS(=O)(=O)C(F)(F)F` [Compound C-0006, (S)-2-chloro-4-fluoro-N-(2,2,2-trifluoroethyl)-5-{2-[(trifluoromethyl)sulfonamido]propoxy}benzamide], for which the mortality at 500 ppm with Helicoverpa armigera, with Plutella xylostella, in the experiment on Nilaparvata lugens and with Aphis gossypii was at least 90% throughout. For the same compound, the pest or weed control at 500 ppm in the experiment on Tetranychus urticae was at least 90%.

On to `C[C@@H](COc1cc(C(=O)NC2CC2)c(Cl)cc1F)NS(=O)(=O)C(F)(F)F` [Compound C-0130, (S)-2-chloro-N-cyclopropyl-4-fluoro-5-{2-[(trifluoromethyl)sulfonamido]propoxy}benzamide], for which the mortality at 500 ppm in the experiment with Helicoverpa armigera, in the experiment with Plutella xylostella, in the experiment on Nilaparvata lugens and with Aphis gossypii was at least 90% throughout. In the experiment on Tetranychus urticae, the pest or weed control at 500 ppm was at least 90%.

Take `C[C@@H](COc1cc(C(=O)NC2(C#N)CC2)c(Cl)cc1F)NS(=O)(=O)C(F)(F)F` [Compound C-2980, (S)-2-chloro-N-(1-cyanocyclopropyl)-4-fluoro-5-{2-[(trifluoromethyl)sulfonamido]propoxy}benzamide]: the pest or weed control at 500 ppm with Tetranychus urticae is at least 90%. The mortality at 500 ppm with Plutella xylostella, in the experiment on Nilaparvata lugens and with Aphis gossypii was at least 90% in each case.

For `CC(=O)N(CC(F)(F)F)C(=O)c1cc(OCC(C)NS(=O)(=O)C(F)(F)F)c(F)cc1Cl` (stereo not shown) [Compound C-4214, N-acetyl-2-chloro-4-fluoro-N-(2,2,2-trifluoroethyl)-5-{2-[(trifluoromethyl)sulfonamido]propoxy}benzamide], the mortality at 500 ppm with Helicoverpa armigera, in the experiment with Plutella xylostella, with Nilaparvata lugens and with Aphis gossypii was at least 90% throughout. The pest or weed control at 500 ppm in the experiment on Tetranychus urticae is at least 90%.

For `CC(COc1cc(C(=O)NCC(F)(F)F)c(Cl)cc1F)N(C(=O)OC(C)(C)C)S(=O)(=O)C(F)(F)F` (stereo not shown) [Compound C-9422, tert-butyl(1-{4-chloro-2-fluoro-5-[(2,2,2-trifluoroethyl)carbamoyl]phenoxy}propan-2-yl)[(trifluoromethyl)sulfonyl]carbamate], the mortality at 500 ppm in the experiment with Helicoverpa armigera, in the experiment with Plutella xylostella, in the experiment on Nilaparvata lugens and with Aphis gossypii was at least 90% in each case. Moreover, in the experiment on Tetranychus urticae, the pest or weed control at 500 ppm is at least 90%.
